# Values quoted from earlier work in US20080171032A1, “DIETARY SUPPLEMENT COMPOSITION AND METHOD OF USE FOR THE TREATMENT AND PREVENTION OF OXIDATIVE STRESS” (priority 2007, published 2008).
# How the values were obtained:
# [1] = system: mitochondrial membranes
# [2] = system: scleroderma; details: about 12 grams daily
# [3] = system: dermatomyositis; details: two dermatomyositis patients, 15 to 20 grams daily
# [4] = system: advanced glycation end-products (AGEs); details: 600 mg/day prior to blood draw
# [5] = system: human fibroblasts
# [6] = system: serum lipid oxidation products; details: human, tocotrienol supplementation at 40 mg/day, versus placebo
compound,measurement,setting,value
CC1=C(/C=C/C(C)=C/C=C/C(C)=C/C=C/C=C(C)/C=C/C=C(C)/C=C/C2=C(C)C(=O)[C@@H](O)CC2(C)C)C(C)(C)C[C@H](O)C1=O [Astaxanthin],protection against oxygen-induced mitochondrial membrane damage,[1],protection against oxygen-induced mitochondrial membrane damage
"Nc1ccc(C(=O)O)cc1 [PABA, 4-aminobenzoic acid]",solubility in water,,slight
"Nc1ccc(C(=O)[O-])cc1.[K+] [POTABA, potassium para-aminobenzoate]","patients with mild, moderate or marked skin softening",[2]; 224 scleroderma patients,Ninety
same,adverse events,[2]; scleroderma patients,no significant adverse events were reported
same,clinical improvement,[3],Clinical improvement was noted
C/C(=C(\CCOP(=O)(O)O)SC(=O)c1ccccc1)N(C=O)Cc1cnc(C)nc1N [benfotiamine],AGE formation in the cells of test subjects,[4],significant decrease
same,glycoxidation in the cells of test subjects,[4],significant decrease
NCCC(=O)N[C@@H](Cc1cnc[nH]1)C(=O)O [carnosine],effect on cells approaching senescence,[5]; human fibroblasts approaching senescence supplemented with carnosine,markedly rejuvenated and their lifespan extended
same,onset of cell senescence,[5]; human fibroblasts exposed to 50 mM carnosine,reduction in onset of cell senescence
tocotrienol,lowering of serum lipid oxidation products,[6],more effective in lowering serum lipid oxidation products than placebo
